In patent US10385014B2, “Acyloxyalkyl carbamate prodrugs, methods of synthesis and use” (ARBOR PHARMACEUTICALS, LLC, priority 2003, dated 2019):

How the values were obtained:
[1] = Prodrug stability in rat plasma in vitro; format: in vitro ADME; conditions: 2.0 μM, 37° C.
Experimental: (§1) The stabilities of prodrugs were evaluated in one or more in vitro systems using a variety of tissue preparations following methods known in the art. The chemical stability of prodrugs in aqueous buffers at pH's of 2.0, 7.4 and 8.0 were also measured. […] Each preparation was incubated with test compound at 37° C. for one hour. Aliquots (50 μL) were removed at 0, 30, and 60 min and quenched with 0.1% trifluoroacetic acid in acetonitrile. Samples were then centrifuged and analyzed by LC/MS/MS (see Example 86 below for method details).

[2] = Prodrug stability in rat liver S9; format: in vitro ADME; conditions: Rat Liver S9 (0.5 mg/mL), 2.0 μM, NADPH, 37° C.
Experimental: as §1

pancreatin = assay: Pancreatin stability; format: in vitro ADME, porcine; conditions: 1% (w/v) pancreatin, 5 μM, pH 7.5, 37° C.
Experimental: Pancreatin Stability: Stability studies were conducted by incubating prodrug (5 μM) with 1% (w/v) pancreatin (Sigma, P-1625, from porcine pancreas) in 0.025 M Tris buffer containing 0.5 M NaCl (pH 7.5) at 37° C. for 60 min. The reaction was stopped by addition of 2 volumes of methanol. After centrifugation at 14,000 rpm for […], the supernatant was removed and analyzed by LC/MS/MS.

[3] = Caco-2 homogenate S9 stability; format: in vitro ADME; conditions: Caco-2 S9 (0.5 mg protein per mL), 5 μM, 37° C.
Experimental: Caco-2 Homogenate S9 Stability: Caco-2 cells were grown for 21 days prior to harvesting. Culture medium was removed and cell monolayers were rinsed and scraped off into ice-cold 10 mM sodium phosphate/0.15 M potassium chloride, pH 7.4. Cells were lysed by sonication at 4° C. using a probe sonicator. Lysed cells were then transferred into 1.5 mL centrifuge vials and centrifuged at 9000 g for 20 min at 4° C. The resulting supernatant (Caco-2 cell homogenate S9 fraction) was aliquoted into 0.5 mL vials and stored at −80° C. until used.
For stability studies, prodrug (5 μM) was incubated in Caco-2 homogenate S9 fraction (0.5 mg protein per mL) for 60 min at 37° C. Concentrations of intact prodrug and released baclofen were determined at zero time and 60 minutes using LC/MS/MS.

[4] = Prodrug stability in human liver S9; format: in vitro ADME; conditions: Human Liver S9 (0.5 mg/mL), 2.0 μM, NADPH, 37° C.
Experimental: as §1

[5] = Chemical stability of prodrugs in aqueous buffers; format: physicochemical
Experimental: as §1

Caco-2 cells = assay: Caco-2 cellular permeability of prodrugs; format: in vitro ADME; conditions: Caco-2 monolayer, ratio of Papp values
Experimental: For example, cellular permeability may be evaluated by examining the flux of a prodrug across a cultured polarized cell monolayer (e.g., Caco-2 cells). Caco-2 cells obtained from continuous culture (passage less than 28) were seeded at high density onto Transwell polycarbonate filters. Cells were maintained with DMEM/10% fetal calf serum+0.1 mM nonessential amino acids+2 mM L-Gln, 5% CO2/95% O2, 37° C. until the day of the experiment. Permeability studies were conducted at pH 6.5 apically (in 50 mM MES buffer containing 1 mM CaCl2, 1 mM MgCl2, 150 mM NaCl, 3 mM KCl, 1 mM NaH2PO4, 5 mM glucose) and pH 7.4 basolaterally (in Hanks' balanced salt solution containing 10 mM HEPES) in the presence of efflux pump inhibitors (250 μM MK-571, 250 μM Verapamil, 1 mM Ofloxacin). Inserts were placed in 12 or 24 well plates containing buffer and incubated for 30 min at 37 C.°. Prodrug (200 μM) was added to the apical or basolateral compartment (donor) and concentrations of prodrug and/or released parent drug in the opposite compartment (receiver) were determined at intervals over 1 hour using LC/MS/MS. Values of apparent permeability (Papp) were calculated using the equation: Papp=Vr(dC/dt)//(ACo)
Here Vr is the volume of the receiver compartment in mL; dC/dt is the total flux of prodrug and parent drug (μM/s), determined from the slope of the plot of concentration in the receiver compartment versus time; Co is the initial concentration of prodrug in μM; A is the surface area of the membrane in cm^2.

[6] = Prodrug stability in human plasma in vitro; format: in vitro ADME; conditions: 2.0 μM, 37° C.
Experimental: as §1

[7] = animal models; cited from earlier work

| Structure (SMILES) | % of Prodrug Remaining after 60 min [1] [%] | % of Prodrug Remaining after 60 min [2] [%] | % of Prodrug Remaining after 60 min (pancreatin) [%] | % of Prodrug Remaining after 60 min [3] [%] | % of Prodrug Remaining after 60 min [4] [%] | % of Baclofen Released after 60 min ([5]; aqueous buffer pH 2.0, 37° C.) [%] | % of Baclofen Released after 60 min ([5]; aqueous buffer pH 7.4, 37° C.) [%] | % of Baclofen Released after 60 min ([5]; aqueous buffer pH 8.0, 37° C.) [%] | % of Baclofen Released after 60 min [1] [%] | % of Baclofen Released after 60 min [2] [%] | Ratio A-B/B-A (Caco-2 cells) | % of Baclofen Released after 60 min [6] [%] | % of Prodrug Remaining after 60 min [6] [%] | % of Baclofen Released after 60 min [3] [%] | % of Baclofen Released after 60 min [4] [%] | % of Prodrug Remaining after 60 min ([5]; aqueous buffer pH 2.0, 37° C.) [%] | % of Prodrug Remaining after 60 min ([5]; aqueous buffer pH 7.4, 37° C.) [%] | % of Prodrug Remaining after 60 min ([5]; aqueous buffer pH 8.0, 37° C.) [%] | absorption following administration into the colon [7] | % of Baclofen Released after 60 min (pancreatin) [%] |
| --- | --- | --- | --- | --- | --- | --- | --- | --- | --- | --- | --- | --- | --- | --- | --- | --- | --- | --- | --- | --- |
| CCCC(=O)O[C@H](CCC)OC(=O)NC[C@H](CC(=O)[O-])c1ccc(Cl)cc1.[Na+] [(86), Sodium 4-{[(1S)-Butanoyloxybutoxy]carbonylamino}-(3R)-(4-chlorophenyl)-butanoate] | 1 | 2 | 4 | 2 | 2 | 0 | 1 | 2 | – | – | – | – | – | – | – | – | – | – | – | – |
| CC(C)C(=O)OCOC(=O)NC[C@H](CC(=O)[O-])c1ccc(Cl)cc1.[Na+] [(18), Sodium 4-[(Isobutanoyloxymethoxy)carbonylamino]-(3R)-(4-chlorophenyl)-butanoate] | 39 | 1 | 2 | 1 | 2 | 0 | 0 | 0 | 60 | 100 | 1.1 | 27 | 61 | 100 | 100 | 105 | 95 | 102 | – | – |
| O=C([O-])C[C@@H](CNC(=O)OCOC(=O)CCc1ccccc1)c1ccc(Cl)cc1.[Na+] [(62), Sodium 4-[(3-Phenylpropionovloxymethoxy)carbonylamino]-(3R)-(4-chlorophenyl)-butanoate] | 5 | 2 | 1 | 1 | 0 | 0 | 2 | 8 | – | – | – | 2 | – | – | – | – | – | – | – | – |
| NCC(CC(=O)O)c1ccc(Cl)cc1 (racemic) [Baclofen, (±)-4-Amino-3-(4-chlorophenyl)butanoic acid] | – | – | – | – | – | – | – | – | – | – | – | – | – | – | – | – | – | – | poorly absorbed | – |
| CC(=O)OC(C)OC(=O)NC[C@H](CC(=O)[O-])c1ccc(Cl)cc1.[Na+] (stereo partly drawn) [(30), Sodium 4-[(1-Acetoxyethoxy)carbonylamino]-(3R)-(4-chlorophenyl)-butanoate] | 58 | 1 | – | 24 | 7 | 0 | 1 | 3 | 42 | 85 | 3.8 | 8 | 85 | 70 | 87 | 100 | 87 | 81 | – | 9 |
| CCCC(=O)OC(OC(=O)NC[C@H](CC(=O)[O-])c1ccc(Cl)cc1)C1CCCCC1.[Na+] (stereo partly drawn) [(85), Sodium 4-[(1-Butanoyloxy-1-cyclohexylmethoxy)carbonylamino]-(3R)-(4-chlorophenyl)-butanoate] | 82 | 2 | – | 4 | 2 | 0 | 0 | 0 | – | – | – | 4 | – | 82 | – | – | – | – | – | – |
| CC(C)C(=O)O[C@H](OC(=O)NC[C@H](CC(=O)[O-])c1ccc(Cl)cc1)C(C)C.[Na+] [(100), Sodium 4-{[(1R)-Isobutanoyloxyisobutoxy]carbonylamino}-(3R)-(4-chlorophenyl)-butanoate] | 9 | 3 | – | 7 | 1 | 0 | 0 | 0 | – | – | – | 3 | – | – | – | – | – | – | – | – |
| CCCC(=O)O[C@H](OC(=O)NC[C@H](CC(=O)[O-])c1ccc(Cl)cc1)C(C)C.[Na+] [(90), Sodium 4-{[(1R)-Butanoyloxyisobutoxy]carbonylamino}-(3R)-(4-chlorophenyl)-butanoate] | 5 | 3 | 9 | 5 | 1 | 0 | 0 | 1 | – | – | – | 2 | – | – | – | – | – | 93 | – | – |
| CCCC(=O)OCOC(=O)NC[C@H](CC(=O)[O-])c1ccc(Cl)cc1.[Na+] [(16), Sodium 4-[(Butanoyloxymethoxy)carbonylamino]-(3R)-(4-chlorophenyl)-butanoate] | 54 | 1 | 1 | 1 | 1 | 0 | 0 | 0 | 40 | 100 | 5.1 | 20 | 62 | 100 | 100 | 100 | 100 | 100 | – | – |
| CC(C)C(=O)OC(OC(=O)NC[C@H](CC(=O)[O-])c1ccc(Cl)cc1)C(C)C.[Na+] (stereo partly drawn) [(25), Sodium 4-[(1-Isobutanoyloxyisobutoxy)carbonylamino]-(3R)-(4-chlorophenyl)-butanoate] | 5 | 1 | – | 2 | 4 | 0 | 0 | 0 | – | – | – | 4 | – | – | – | – | – | 100 | – | – |
